Results from patent US12540131B2 (Merck Sharp & Dohme LLC, priority 2019, dated 2026).

The compounds below were run against GST tagged truncated human mutant G2019S LRRK2 (Homo sapiens (Human), UniProt Q5S007, G2019S) (assay: LRRK2 Km ATP LanthaScreen Assay). Details: G2019S LRRK2, 134 μM ATP (Km ATP), mean values.
Chain of GST tagged truncated human mutant G2019S LRRK2 (Q5S007 970-2527 G2019S): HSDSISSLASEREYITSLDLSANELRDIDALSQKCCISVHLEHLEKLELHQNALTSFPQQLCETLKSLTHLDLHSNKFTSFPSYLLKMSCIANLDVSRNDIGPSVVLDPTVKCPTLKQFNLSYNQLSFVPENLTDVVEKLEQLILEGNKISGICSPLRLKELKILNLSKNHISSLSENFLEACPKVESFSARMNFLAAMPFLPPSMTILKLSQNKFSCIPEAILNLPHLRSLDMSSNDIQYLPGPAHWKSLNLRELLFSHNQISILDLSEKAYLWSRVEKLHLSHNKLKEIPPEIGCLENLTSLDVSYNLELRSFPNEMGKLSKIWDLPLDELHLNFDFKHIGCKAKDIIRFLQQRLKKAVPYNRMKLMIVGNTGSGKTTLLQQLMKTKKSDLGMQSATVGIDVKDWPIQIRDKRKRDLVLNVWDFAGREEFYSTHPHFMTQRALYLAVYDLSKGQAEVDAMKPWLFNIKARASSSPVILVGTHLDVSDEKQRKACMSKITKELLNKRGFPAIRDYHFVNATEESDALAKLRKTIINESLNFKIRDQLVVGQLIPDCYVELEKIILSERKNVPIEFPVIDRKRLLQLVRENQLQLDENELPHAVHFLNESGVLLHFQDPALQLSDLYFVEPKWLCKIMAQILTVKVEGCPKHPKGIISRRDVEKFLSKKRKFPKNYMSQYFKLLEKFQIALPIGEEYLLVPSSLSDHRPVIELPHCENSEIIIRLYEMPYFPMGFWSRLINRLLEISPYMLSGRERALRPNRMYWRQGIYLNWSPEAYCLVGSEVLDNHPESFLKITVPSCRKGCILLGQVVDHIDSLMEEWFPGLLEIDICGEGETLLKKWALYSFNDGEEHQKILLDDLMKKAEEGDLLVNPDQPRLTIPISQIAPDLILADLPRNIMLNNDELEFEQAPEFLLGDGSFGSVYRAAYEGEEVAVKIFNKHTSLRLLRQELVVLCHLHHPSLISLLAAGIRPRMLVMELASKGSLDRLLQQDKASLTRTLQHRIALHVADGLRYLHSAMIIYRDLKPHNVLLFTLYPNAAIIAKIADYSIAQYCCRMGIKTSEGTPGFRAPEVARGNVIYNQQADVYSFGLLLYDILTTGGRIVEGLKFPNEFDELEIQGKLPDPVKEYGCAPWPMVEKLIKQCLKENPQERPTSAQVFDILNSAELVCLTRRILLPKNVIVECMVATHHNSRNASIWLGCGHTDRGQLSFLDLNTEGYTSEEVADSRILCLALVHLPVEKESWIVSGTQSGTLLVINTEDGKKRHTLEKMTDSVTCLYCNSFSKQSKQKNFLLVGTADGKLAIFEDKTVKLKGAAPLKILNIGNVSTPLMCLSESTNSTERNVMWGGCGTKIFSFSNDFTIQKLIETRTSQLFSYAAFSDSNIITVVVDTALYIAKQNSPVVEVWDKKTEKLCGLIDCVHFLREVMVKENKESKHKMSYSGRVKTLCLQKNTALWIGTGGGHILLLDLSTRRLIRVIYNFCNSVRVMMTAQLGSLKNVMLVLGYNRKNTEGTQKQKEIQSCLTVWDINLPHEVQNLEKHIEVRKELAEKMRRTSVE
Type: biochemical
Procedure, shortened: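 Enzyme (GST-tagged, truncated) was preincubated with compound for 15 min at RT in 50 mM Tris pH 8.5, 10 mM MgCl2, 0.01% Brij-35, 1 mM EGTA, 2 mM DTT and 0.05 mM orthovanadate. Fluorescein-LRRKtide and 134 μM ATP (Km) were then added for 90 min. EDTA and Tb-anti-pERM antibody stopped the reaction; the TR-FRET 520/495 ratio gave 4-parameter IC50s, reported as mean pIC50.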
With `FC(F)n1ncc(Nc2ncc3cc(Cl)c(C4CCN(C5COC5)CC4)cc3n2)c1Cl` [Ex-8.2, 6-chloro-N-[5-chloro-1-(difluoromethyl)-1H-pyrazol-4-yl]-7-[1-(oxetan-3-yl)piperidin-4-yl]quinazolin-2-amine] the “LRRK2 pIC50” value was 8.83. `Cc1nsc(Nc2ncc3cc(Cl)c(C4CCN(C5COC5)CC4)cc3n2)c1Cl` [Ex-8.5, 6-chloro-N-(4-chloro-3-methyl-1,2-thiazol-5-yl)-7-[1-(oxetan-3-yl)piperidin-4-yl]quinazolin-2-amine] was tested, and the “LRRK2 pIC50” value was over 9.20. With `N#CCCN1CCC(c2cc3nc(Nc4cnn(C5CC5)c4Cl)ncc3cc2Cl)CC1` [Ex-8.6, 3-(4-{6-chloro-2-[(5-chloro-1-cyclopropyl-1H-pyrazol-4-yl)amino]quinazolin-7-yl}piperidin-1-yl)propanenitrile] the “LRRK2 pIC50” value was 8.17. In the case of `O=S1(=O)CC(N2CCC(c3cc4nc(Nc5cnn(C6CC6)c5Cl)ncc4cc3Cl)CC2)C1` [Ex-8.7, 3-(4-(6-chloro-2-((5-chloro-1-cyclopropyl-1H-pyrazol-4-yl)amino)quinazolin-7-yl)piperidin-1-yl)thietane 1,1-dioxide], the “LRRK2 pIC50” value was over 9.20. `Clc1cc2cnc(Nc3cnn(C4CC4)c3Cl)nc2cc1C1CCN(C2COC2)CC1` [Ex-8.8, 6-chloro-N-(5-chloro-1-cyclopropyl-1H-pyrazol-4-yl)-7-[1-(oxetan-3-yl)piperidin-4-yl]quinazolin-2-amine] was tested, and the “LRRK2 pIC50” value was over 9.20. `CC1(n2ncc(Nc3ncc4cc(Cl)c(C5CCNCC5)cc4n3)c2Cl)CC1` [Ex-8.9, 6-chloro-N-[5-chloro-1-(1-methylcyclopropyl)-1H-pyrazol-4-yl]-7-(piperidin-4-yl)quinazolin-2-amine] was tested, and the “LRRK2 pIC50” value was over 9.20. `CC1(N2CCC(c3cc4nc(Nc5cnn(C6CC6)c5Cl)ncc4cc3Cl)CC2)COC1` [Ex-8.10, 6-chloro-N-(5-chloro-1-cyclopropyl-1H-pyrazol-4-yl)-7-[1-(3-methyloxetan-3-yl)piperidin-4-yl]quinazolin-2-amine] was tested, and the “LRRK2 pIC50” value was 9.08. `CN1CCC(c2cc3nc(Nc4cnn(C(C)(C)CO)c4Cl)ncc3cc2Cl)CC1` [Ex-8.11, 2-(5-chloro-4-{[6-chloro-7-(1-methylpiperidin-4-yl)quinazolin-2-yl]amino}-1H-pyrazol-1-yl)-2-methylpropan-1-ol] was tested, and the “LRRK2 pIC50” value was 8.91. For `CC1(n2ncc(Nc3ncc4cc(Cl)c(C5CCN(C6CS(=O)(=O)C6)CC5)cc4n3)c2Cl)CC1` [Ex-8.12, 3-(4-(6-chloro-2-((5-chloro-1-(1-methylcyclopropyl)-1H-pyrazol-4-yl)amino)quinazolin-7-yl)piperidin-1-yl)thietane 1,1-dioxide], the “LRRK2 pIC50” value was 8.92. With `CC1(n2ncc(Nc3ncc4cc(Cl)c(C5CCN(CCC#N)CC5)cc4n3)c2Cl)CC1` [Ex-8.13, 3-[4-(6-chloro-2-{[5-chloro-1-(1-methylcyclopropyl)-1H-pyrazol-4-yl]amino}quinazolin-7-yl)piperidin-1-yl]propanenitrile] the “LRRK2 pIC50” value was over 9.20. `CN1CCC(c2cc3nc(Nc4cnn(C5(C)CC5)c4Cl)ncc3cc2Cl)CC1` [Ex-8.14, 6-chloro-N-[5-chloro-1-(1-methylcyclopropyl)-1H-pyrazol-4-yl]-7-(1-methylpiperidin-4-yl)quinazolin-2-amine] was tested, and the “LRRK2 pIC50” value was over 9.20. `CC1(N2CCC(c3cc4nc(Nc5cnn(C6(C)CC6)c5Cl)ncc4cc3Cl)CC2)COC1` [Ex-8.15, 6-chloro-N-[5-chloro-1-(1-methylcyclopropyl)-1H-pyrazol-4-yl]-7-[1-(3-methyloxetan-3-yl)piperidin-4-yl]quinazolin-2-amine] was tested, and the “LRRK2 pIC50” value was over 9.20. In the case of `[2H]C1([2H])OC([2H])([2H])C1N1CCC(c2cc3nc(Nc4cnn(C5CC5)c4Cl)ncc3cc2Cl)CC1` [Ex-8.16, 6-chloro-N-(5-chloro-1-cyclopropyl-1H-pyrazol-4-yl)-7-(1-(oxetan-3-yl-2,2,4,4-d4)piperidin-4-yl)quinazolin-2-amine], the “LRRK2 pIC50” value was 9.18. In the case of `COC1CC(Cn2ncc(Nc3ncc4cc(Cl)c(C5CCN(C6COC6)CC5)cc4n3)c2Cl)C1` (centres unmarked) [Ex-8.17, 6-chloro-N-{5-chloro-1-[(3-methoxycyclobutyl)methyl]-1H-pyrazol-4-yl}-7-[1-(oxetan-3-yl)piperidin-4-yl]quinazolin-2-amine], the “LRRK2 pIC50” value was over 9.20. For `N#CC1(Cn2ncc(Nc3ncc4cc(Cl)c(C5CCN(C6COC6)CC5)cc4n3)c2Cl)CC1` [Ex-8.24, 1-{[5-chloro-4-({6-chloro-7-[1-(oxetan-3-yl)piperidin-4-yl]quinazolin-2-yl}amino)-1H-pyrazol-1-yl]methyl}cyclopropane-1-carbonitrile], the “LRRK2 pIC50” value was 8.92. In the case of `OC1(Cn2ncc(Nc3ncc4cc(Cl)c(C5CCN(C6COC6)CC5)cc4n3)c2Cl)CCC1` [Ex-8.26, 1-{[5-chloro-4-({6-chloro-7-[1-(oxetan-3-yl)piperidin-4-yl]quinazolin-2-yl}amino)-1H-pyrazol-1-yl]methyl}cyclobutan-1-ol], the “LRRK2 pIC50” value was 8.78. With `CC1(N2CCC(c3cc4nc(Nc5cnn(C67CC(C6)C7)c5Cl)ncc4cc3Cl)CC2)COC1` [Ex-8.38, N-[1-(bicyclo[1.1.1]pentan-1-yl)-5-chloro-1H-pyrazol-4-yl]-6-chloro-7-[1-(3-methyloxetan-3-yl)piperidin-4-yl]quinazolin-2-amine] the “LRRK2 pIC50” value was over 9.20. For `COCC12CC(n3ncc(Nc4ncc5cc(Cl)c(C6CCN(C7(C)COC7)CC6)cc5n4)c3Cl)(C1)C2` [Ex-8.39, 6-chloro-N-{5-chloro-1-[3-(methoxymethyl)bicyclo[1.1.1]pentan-1-yl]-1H-pyrazol-4-yl}-7-[1-(3-methyloxetan-3-yl)piperidin-4-yl]quinazolin-2-amine], the “LRRK2 pIC50” value was 8.98. For `COC[C@]12C[C@](n3ncc(Nc4ncc5cc(Cl)c(C6CCN(C7(C)COC7)CC6)cc5n4)c3Cl)(C1)C2` [Ex-8.40], the “LRRK2 pIC50” value was over 9.20. In the case of “(3S,4S) or (3R,4R) 6-chloro-N-(5-chloro-1-cyclopropyl-1H-pyrazol-4-yl)-7-(3-fluoropiperidin-4-yl)quinazolin-2-amine [Ex-4.1]”, the “LRRK2 pIC50” value was 9.08.
